Ends that are not written are not given here.

In series [1] the test system is MSLN+K562 target cells (mixed 1:1 with CEA+K562). Briefly: Cytotoxicity test of sdCAR-T cells in vitro. The note with it: for percentage content of homologous target cells MSLN+K562 (green fluorescence): fluorescence detection, versus beginning of the test. Type of series: cell-based, human. On the procedure: The cytotoxicity of sdCAR-T cells was determined according to the survival rate of target cells (MSLN^+K562). The selected target cells were equal mixed cells of MSLN and CEA. […] The survival rate of MSLN target cells in each test group was calculated according to the following formula, and then the tumor killing ability of the constructed CARs-T cells in vitro could be analyzed.
1) Effector cells and mixed target cells (MSLN^+K562:CEA^+K562, 1:1) were co-incubated at a ratio of 5:2 in a U-shaped 96-well plate, RPMI1640 (10% FBS) was selected as a co-culture medium, and corresponding switching molecule s were added.
2) Culturing at 37° C. for 22 h with 5% CO2.
3) The ratio of MSLN and CEA tumor cells in each test group was detected by a flow cytometer, and then the survival rate of MSLN target cells was calculated.

The subject of series [2] is MSLN+K562 cells (mixed 1:1 with CEA+K562). As to the kind of experiment: Time regulation of in vitro activity of sdCAR-T cells by exogenous switching molecules. It counts as cell-based, human. As to conditions: switching molecule added at 4 h, sampled every 2 h, effector:target 5:2. On the procedure: This example verified that the killing activity of the sdCAR-T cells on tumor cells was subjected to time regulation by the switching molecules, and the selected target cells were MSLN single positive tumor cells and single positive tumor cells of negative control CEA. In the 14-hour test, the cytotoxicity of sdCAR-T cells was tested in real time with and without switching molecules. A total of four test groups were designed, each group had three parallel wells, and the design of test group was the same as that of Example 6.
1) Effector cells and mixed target cells (MSLN^+K562:CEA^+K562, 1:1) were co-incubated at a ratio of 5:2 in a 6-well plate, RPMI1640 (containing 10% FBS) was selected as a co-culture medium, cultured at 37° C. with 5% CO2.
2) 100 μL of cell suspension was taken every 2 h as the culturing begins at the 0 h.
3) Corresponding switching molecules were added at the 4 h.
4) Co-culturing for 10 h (that is, cell suspension was taken 6 times); after the culture, the ratio of MSLN and CEA tumor cells in each test group was detected by a flow cytometer, and then the survival rate of MSLN target cells was calculated.

Series [3] relates to MSLN+K562 cells (mixed equally with CEA+K562 cells, intraperitoneal). Briefly: Tumor killing test by sdCAR-T cells in vivo. More on the design: species or system nude mice BALB/c. The note with it: nude mice; for in vivo cytokine (IL-2 and IFNγ) release level / in vivo cytokine (IL-2 and IFNγ) release level compared with Conventional CAR-T cell group: abdominal cavity fluid supernatant; for in vivo cytotoxicity of sdCAR-T cells: intraperitoneal tumor cells, abdominal cavity fluid by flow cytometry. The procedure:
Female nude mice BALB/c which were 6-8 weeks old were selected, MSLN^+K562 cells and CEA^+K562 cells were mixed equally and injected intraperitoneally into the nude mice, and then corresponding effector cells and switching molecules were added respectively. Refer to FIG. 19 for details of the in vivo test process. Six test groups were designed, with 6 nude mice in each group. Specific solutions are as follows:
group 1: effector cells are T cells (No CAR) and no switching molecules are added;
group 2: effector cells are the second generation of CAR-T cells (Conventional CAR) specific to MSLN, and no switching molecules are added;
group 3: effector cells are sdCAR-T cells and no switching molecules are added;
group 4: effector cells are sdCAR-T cells, and small molecule HM-3 is added;
group 5: effector cells are sdCAR-T cells and switching molecule FITC is added; and
After the test was completed, the nude mice were euthanized, and then 5 mL of pre-cooled PBS was injected into the abdominal cavities of the nude mice. After the abdominal cavities of the nude mice were rubbed many times, the abdominal cavity fluid was sucked out completely, and centrifuged at a centrifugal force of 800 g for 8 min. The cells were collected, and the percentage of the two tumor cells was measured by flow cytometry, and then the in vivo activity of sdCAR-T cells could be calculated. In addition, the above centrifuged supernatant was collected to measure the release levels of cytokines IL-2 and IFNγ respectively.
For orientation: Flow cytometry measures light scatter and fluorescence of single cells or particles in a stream.

The next series concerns K562 tumor cells. As to the kind of experiment: Killing curve of K562 tumor cells by puromycin / hygromycin. Type of series: cell-based. The note with it: 5 consecutive days. The procedure:
1) Low-generation cell strains were resuscitated from liquid nitrogen, and subjected to conventional culture and passaged 5 times, then the cell state was adjusted to a logarithmic growth period.
2) A new 24-well plate was prepared, 50000 K562 tumor cells were inoculated per well for 7 wells in total, and 500 μL of complete culture medium (RPMI1640, 10% FBS) was added per well. The well plate was placed in an incubator at 37° C. with 5% CO2 and cultured overnight.
3) The cell well plate was taken out from the incubator, one well was left free of puromycin, and puromycin with final concentrations of 0.5, 1, 2, 4, and 8 μg/mL were added to the remaining wells respectively.
4) The well plate was placed in an incubator at 37° C. with 5% CO2 for continuous cultivation. The state of cells in the well plate was observed under a microscope every day for 5 consecutive days. And the minimum concentration that can completely kill all cells on the fifth day was taken as the puromycin concentration for subsequent stable cell strain screening.
The method is the same as that of Example 3.4. The concentration gradient of the hygromycin was set to 50, 100, 200, 400 and 800 μg/mL respectively, and the concentration of the hygromycin was finally selected to be 100 μg/mL through the determination of the killing curve.

For the compound `O=C1OC2(c3ccc(O)cc3Oc3cc(O)ccc32)c2ccc(N=C=S)cc21` [FITC], the “survival rate of MSLN tumor cells” value in series [1] (effector:mixed target cells 5:2, 22 h, flow cytometry) is recorded as “about 30.98%”. In addition, in series [1], the “percentage content of homologous target cells MSLN+K562 (green fluorescence)” value was “significantly lower than that at the beginning of the test”. Also, in series [2], the “cytotoxicity of sdCAR-T cells after addition of switching molecule” value is “significant cytotoxicity”. Moreover, in series [3], the “in vivo cytokine (IL-2 and IFNγ) release level” value is “release significant cytokine levels”; the “in vivo cytokine (IL-2 and IFNγ) release level compared with Conventional CAR-T cell group” value is recorded as “only half of the level”; the “in vivo cytotoxicity of sdCAR-T cells” value was “significant cytotoxicity”.

With `COc1ccc(C[C@H](N)C(=O)N[C@H]2[C@@H](O)[C@H](n3cnc4c(N(C)C)ncnc43)O[C@@H]2CO)cc1` [puromycin], the “minimum concentration that can completely kill all cells on the fifth day (concentration selected from the killing curve)” value with K562 tumor cells came to 1 µg/mL.

“FHBM: FITC and polypeptide HM-3 coupled to form a bifunctional small molecule; exogenous switching molecule for sdCAR-T cells (IVRRADRAAVPGGGGRGD; also: FITC coupled to HM-3, site not given here)”: the “percentage content of homologous target cells MSLN+K562 (green fluorescence)” value in series [1] is “significantly lower than that at the beginning of the test”. In addition, the “cytotoxicity of sdCAR-T cells after addition of switching molecule” value in series [2] is recorded as “significant cytotoxicity”. In series [3], the “in vivo cytokine (IL-2 and IFNγ) release level” value was “release significant cytokine levels”; the “in vivo cytokine (IL-2 and IFNγ) release level compared with Conventional CAR-T cell group” value is on record as “only half of the level”; the “in vivo cytotoxicity of sdCAR-T cells” value was “significant cytotoxicity”. Also, the “in vivo cytotoxicity of FHBM treatment group compared with FITC treatment group” value in series [3] (sdCAR-T cells plus switching molecule) is “better than that of the FITC treatment group”.
